Results: patent publication US6034097A, “Isoquinolines useful as analgesics” (Astra AB, priority 1996, dated 2000)
Structures can show the parent of a compound that is named as a salt.

Experiments:
[1] = In vitro stability in rat whole blood (RWB) at 37° C.; format: in vitro ADME
Experimental: (§1) In vitro stability of the compounds of the invention in rat whole blood (RWB) at 37° C. and in kidney brush border protease (KBBP) at 37° C.
The compound was initially dissolved in water or in 10% methyl sulfoxide (DMSO)/water to make a stock solution of 10 mg/ml.
The stock solution was added to 15 ml of freshly harvested rat whole blood and incubated at 37° C.
Blanks were prepared without spiking with compounds in rat whole blood.
Aliquots were then taken at specific time intervals, centrifuged, and a fraction of the supernatant was extracted with acetonitrile or with a solution of acetonitrile and 10% acetic acid.
The solvent(s) was(were) removed by evaporation. The resulting residue was analyzed by HPLC.

[2] = system: μ receptors; test: Guinea Pig Ileum (GPI) assay, longitudinal muscle preparation; format: cell-based
Experimental: (§2) The opioid activity of the peptides was assessed in vitro using the guinea pig ileum (GPI) longitudinal muscle preparation and their antinociceptive activity was determined in vivo in PBQ induced writhing models (peripheral activity) and in the hot-plate test (central activity) in rodents. […] Peripheral analgesia is shown by a high potency in the writhing test coupled with a low potency in the hot-plate test.
(§3) PBQ (phenyl-.rho.-benzoquinone) induced writhing in mice is an assessment of both central and peripheral analgesia. For experimental protocol see Sigmund et al., Proc. Soc. Exp. Biol. Med., 15, p. 729(1957) which is incorporated herein by reference. Central analgesia is determined by the inhibition of a hot-plate response in mice. For experimental protocol see G. Woolfe and A. Macdonald, J. Pharmacol. Exp. Ther., 80, p.300 (1944) which is incorporated herein by reference. Assays measuring opioid receptor binding affinities for μ and δ receptors as well as GPI and MVD assays are determined through experimental protocol set out in Schiller et al., Biophys. Res. Commun., 85, p.1322 (1975) incorporated herein by reference.
The activity of the peptide compounds on μ receptors was determined using the Guinea Pig Ileum (GPI) assay (longitudinal muscle preparation) according to the procedures described in Schiller et al., Biophys. Res. Commun., 85, p.1322 (1975).

[3] = target: T1, μ receptors (Rattus norvegicus, UniProt P33535); test: Radioligand binding assay, μ receptor, (3H)-DAMGO, rat brain membranes; details: Ki from IC50 by Cheng and Prusoff
T1 construct: the brains minus cerebellum were removed and place in ice-cold saline solution and then homogenized; from tissue; host or cells: rat brain minus cerebellum, membrane homogenate
Experimental: as §3
(§4) Male Sprague-Dawley rats weighing between 350-450 g were sacrificed by inhalation of CO2. The rats were decapitated and the brains minus cerebellum were removed and place in ice-cold saline solution and then homogenized in ice-cold 50 mM Tris buffer pH 7.4 (10 ml/brain). The membranes were centrifuged at 14000 rpm for 30 min. at 4° C. The pellets were re-suspended in approximately 6 ml/brain of ice-cold Tris buffer 50 mM pH 7.4 and stored at -78° C. until ready for use. Protein quantification of the brain homogenate was conducted according to protein assay kit purchased (Bio-Rad).
(^3 H)-DAMGO and (^3 H) DAGLE were used as radioligands for the μ and δ receptors, respectively. Radioligand 50 μl, membranes 100 μl and serially diluted test compound were incubated for 1 hr at 22° C. Non specific binding was determined using 500 fold excess of unlabeled ligand in the presence of tracer and membranes. Free ligand was separated from bound by filtration through Whatman GF/B paper (presoaked in polyethylenimine 1% aqueous solution) and rinsing with ice-cold 50 mM Tris pH 7.4 using a Brandel cell harvester. The filters were dried and radioactivity was counted in a 24 well microplate in the presence of […] scintillant per well. Radioactivity was measured using a Wallac 1450 Microbeta counter.
(§5) Ki's for the various compounds were determined from the IC50 according to the Cheng and Prusoff equation.

[4] = system: CD #1 male mice; test: PBQ (phenylquinone) induced writhing assay in mice; format: in vivo; details: compound by subcutaneous route, dose inducing 50% reduction in number of writhes vs control
Experimental: The term "ED50 " as shown in table 1 for the PBQ writhing assays is defined as the dose of drug which induces a 50% reduction in the number of writhes observed compared to the control. The term "ED50 " used in the hot-plate assays is defined as the dose of drug required to increase the latency of response 2-fold compared to controls and was determined by parallel-line probit analysis.
as §2, §3
The test was performed on CD #1 male mice weighing between 18 and 22 g. The mice were weighed and marked. They were injected, by intra-peritoneal route, with 0.3 ml/20 g by weight with a solution of phenylquinone at 0.02%. The contortions which appeared during a 15 minute time period following the injection were counted. The phenylquinone was injected at time intervals of 5, 20 or 60 minutes after administration of the compound (or medium, or standard) by subcutaneous route.
The 0.02% phenylquinone solution was prepared in the following fashion. […]

[5] = system: kidney brush border protease (KBBP); test: In vitro stability in kidney brush border protease (KBBP) at 37° C.; format: in vitro ADME; details: PBS pH 7.4, 37° C.; for Metabolites in KBBP: up to 1440 minutes
Experimental: as §1
1.0 mg of the compounds were dissolved in 1 ml PBS pH 7.4 and 500 µL of proteases (1.14 mg of protein/ml) were added.
An initial aliquot was taken at time 0, and the reaction was immediately stopped by placing the sample in a bath of boiling water for 2 minutes (the other time intervals were 5, 15, 30, 60, 120, 1440 minutes).
Blank samples without compounds were also prepared.
The aliquoted samples were filtered on a micron 0.45 filter and the resulting sample were analyzed by HPLC.

[6] = target: T2, κ receptor (Rattus norvegicus, UniProt P34975); test: Radioligand binding assay, κ receptor (Table 1); details: binding inhibition constant
T2 construct: from tissue

[7] = target: T3, δ receptors (Rattus norvegicus, UniProt P33533); test: Radioligand binding assay, δ receptor, (3H) DAGLE, rat brain membranes; details: Ki from IC50 by Cheng and Prusoff
T3 construct: the brains minus cerebellum were removed and place in ice-cold saline solution and then homogenized; from tissue; host or cells: rat brain minus cerebellum, membrane homogenate
Experimental: as §3, §4
(^3 H)-DAMGO and (^3 H) DAGLE were used as radioligands for the μ and δ receptors, respectively. Radioligand 50 μl, membranes 100 μl and serially diluted test compound were incubated for 1 hr at 22° C. Non specific binding was determined using 500 fold excess of unlabeled ligand in the presence of tracer and membranes. […] The filters were dried and radioactivity was counted in a 24 well microplate in the presence of […] scintillant per well. Radioactivity was measured using a Wallac 1450 Microbeta counter.
as §5

T2 sequence (P34975 whole entry): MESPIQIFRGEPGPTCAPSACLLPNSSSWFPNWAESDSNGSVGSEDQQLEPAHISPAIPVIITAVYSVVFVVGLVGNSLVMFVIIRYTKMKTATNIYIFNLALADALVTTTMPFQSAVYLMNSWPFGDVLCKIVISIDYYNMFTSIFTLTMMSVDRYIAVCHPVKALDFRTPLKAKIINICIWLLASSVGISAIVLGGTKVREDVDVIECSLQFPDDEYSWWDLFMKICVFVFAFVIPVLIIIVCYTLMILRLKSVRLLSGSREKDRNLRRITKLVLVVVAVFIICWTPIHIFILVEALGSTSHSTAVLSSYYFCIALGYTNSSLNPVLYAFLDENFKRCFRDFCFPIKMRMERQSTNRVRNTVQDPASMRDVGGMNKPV
T1 sequence (P33535 whole entry): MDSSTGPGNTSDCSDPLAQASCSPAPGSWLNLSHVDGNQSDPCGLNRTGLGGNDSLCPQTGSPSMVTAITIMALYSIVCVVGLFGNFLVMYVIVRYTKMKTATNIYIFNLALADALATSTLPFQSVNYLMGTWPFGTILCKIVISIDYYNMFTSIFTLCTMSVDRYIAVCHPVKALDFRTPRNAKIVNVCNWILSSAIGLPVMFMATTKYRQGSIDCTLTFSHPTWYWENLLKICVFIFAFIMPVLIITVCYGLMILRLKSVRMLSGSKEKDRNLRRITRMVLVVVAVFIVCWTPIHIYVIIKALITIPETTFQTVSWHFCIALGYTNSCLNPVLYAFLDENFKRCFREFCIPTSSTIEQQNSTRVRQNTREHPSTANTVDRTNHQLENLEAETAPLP
T3 sequence (P33533 whole entry): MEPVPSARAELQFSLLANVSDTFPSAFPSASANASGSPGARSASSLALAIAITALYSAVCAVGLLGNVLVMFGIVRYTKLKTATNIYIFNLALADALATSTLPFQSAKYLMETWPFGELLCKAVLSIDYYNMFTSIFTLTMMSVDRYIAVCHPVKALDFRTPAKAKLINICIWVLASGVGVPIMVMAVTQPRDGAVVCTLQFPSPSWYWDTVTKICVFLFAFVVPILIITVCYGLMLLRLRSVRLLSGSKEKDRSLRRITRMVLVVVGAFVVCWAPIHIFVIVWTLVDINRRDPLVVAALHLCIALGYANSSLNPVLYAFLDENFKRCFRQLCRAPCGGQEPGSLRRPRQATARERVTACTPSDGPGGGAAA

| SMILES | Metabolites in RWB [1] | half life in RWB [1] | IC50 [2] | ED50 PBQ writhing [4] | half life in KBBP [5] | Metabolites in KBBP [5] | Ki [7] | other results |
| --- | --- | --- | --- | --- | --- | --- | --- | --- |
| Cc1cc(O)cc(C)c1C[C@H](N)C(=O)N1Cc2ccccc2C[C@H]1C(=O)NCC(O)Cc1ccccc1.O=C(O)C(F)(F)F (stereo partly drawn) [4B, 2-S-(2-Amino-3-(4-hydroxy-2,6-dimethyl-phenyl)-propionyl)-1,2,3,4-tetrahydro-isoquinoline-3-S-carboxylic acid (2-hydroxy-3-phenyl-propyl)amide trifluoroacetic salt] | none detected | > 5.32 h | 13.8 nM | 16.6 mg/kg | > 24 h | none detected | 0.1 ± 0.02 nM | Ki [3]: 0.7 ± 0.27 nM; Ki [6]: 20.6 ± 0.5 nM |
| Cc1cc(O)cc(C)c1CC(NC(=N)N)C(=O)N1Cc2ccccc2C[C@H]1C(=O)NC[C@H](O)Cc1ccccc1 (some centres unmarked) [compound #3, 2-(2-Guanidino-3-(4-hydroxy-2,6-dimethyl-phenyl)-propionyl)-1,2,3,4-tetrahydro-isoquinoline-3-S-carboxylic acid (2-R-hydroxy-3-phenyl-propyl)-amide ditrifloroacetic salt] | – | – | – | – | – | – | 0.56 ± 0.09 nM | Ki ([3]; listed as #3): 2.03 ± 0.37 nM; Ki ([6]; listed as #3): 277 ± 13.6 nM |
| Cc1cc(O)cc(C)c1CC(NC(=N)N)C(=O)N1Cc2ccccc2C[C@H]1C(=O)NC[C@H](O)Cc1ccccc1.O=C(O)C(F)(F)F.O=C(O)C(F)(F)F (some centres unmarked) [compound #3A, 2-(2-Guanidino-3-(4-hydroxy-2,6-dimethyl-phenyl)-propionyl)-1,2,3,4-tetrahydro-isoquinoline-3-S-carboxylic acid (2-R-hydroxy-3-phenyl-propyl)-amide ditrifloroacetic salt] | – | – | – | 3.8 mg/kg | – | – | – | Ki ([3]; listed as #3A): 2.94 ± 0.73 nM; Ki ([6]; listed as #3A): 952 ± 122 nM |
| Cc1cc(O)cc(C)c1CC(NC(=N)N)C(=O)N1Cc2ccccc2C[C@H]1C(=O)NC[C@H](O)Cc1ccccc1 (some centres unmarked) [compound #3B, 2-(2-Guanidino-3-(4-hydroxy-2,6-dimethyl-phenyl)-propionyl)-1,2,3,4-tetrahydro-isoquinoline-3-S-carboxylic acid (2-R-hydroxy-3-phenyl-propyl)-amide ditrifloroacetic salt] | – | – | 7.3 nM | – | – | – | – | Ki ([3]; listed as #3B): 0.5 nM; Ki ([6]; listed as #3B): 164 ± 17.5 nM |
| Cc1cc(O)cc(C)c1C[C@H](N)C(=O)N1Cc2ccccc2C[C@H]1C(=O)NCC(O)Cc1ccccc1.O=C(O)C(F)(F)F (stereo partly drawn) [compound #4A, 2-S-(2-Amino-3-(4-hydroxy-2,6-dimethyl-phenyl)-propionyl)-1,2,3,4-tetrahydro-isoquinoline-3-S-carboxylic acid (2-hydroxy-3-phenyl-propyl)amide trifluoroacetic salt] | none detected | > 2.1 h | – | – | > 24 h | 1 detected after | – | – |
| Cc1cc(O)cc(C)c1CC(N)C(=O)N1Cc2ccccc2C[C@H]1C(=O)NCCCc1ccccc1.O=C(O)C(F)(F)F (some centres unmarked) [compound #5A, 2-(2-Amino-3-(4-Hydroxy-2,6-dimethyl-phenyl)-propionyl)-1,2,3,4-tetrahydro-isoquinoline-3-S-carboxylic acid (3-phenyl-propyl)amide trifluoroacetic salt] | none detected | > 24 h | – | – | > 24 h | none detected | – | – |
| Cc1cc(O)cc(C)c1CC(N)C(=O)N1Cc2ccccc2CC1C(=O)NCCCc1ccccc1.O=C(O)C(F)(F)F (centres unmarked) [compound #5B, 2-(2-Amino-3-(4-Hydroxy-2,6-dimethyl-phenyl)-propionyl)-1,2,3,4-tetrahydro-isoquinoline-3-carboxylic acid (3-phenyl-propyl)amide trifluoroacetic salt] | none detected | > 20 h | – | – | > 24 h | none detected | – | – |
| Cc1cc(O)cc(C)c1CC(N)C(=O)N1Cc2ccccc2C[C@H]1C(=O)NCCCc1ccccc1.O=C(O)C(F)(F)F (some centres unmarked) [compound #6A, 2-(2-Amino-3-(4-Hydroxy-2,6-dimethyl-phenyl)-propionyl)-1,2,3,4-tetrahydro-isoquinoline-3-S-carboxylic acid (3-phenyl-propyl)amide trifluoroacetic salt] | – | – | 5.1 nM | 2.4 mg/kg | – | – | 0.84 ± 0.08 nM | Ki [3]: 0.11 ± 0.02 nM; Ki [6]: 49.6 ± 8.7 nM |
